In one assay the test system is Botrytis cinerea. The assay is described as follows: In vivo test on Botrytis cinerea (cucumber grey mould). The following applies: for pest or weed control at 330 ppm: Botrytis cinerea, cucumber plants sprayed 24 hours before contamination, grading 5/7 days after contamination vs control plants, read-out: protection (good (at least 50%) to total); for efficacy against Botrytis cinerea: 330 ppm, comparison compounds of WO 01/11965. The procedure:
In Vivo Test on Botrytis cinerea (Cucumber Grey Mould)
(§1) The active ingredient tested is prepared by potter homogenisation in a concentrated suspension type formulation at 100 g/l. This suspension is then diluted with water to obtain the desired active material concentration.
Cucumber plants (Marketer variety) in starter cups, sown on a 50/50 peat soil-pozzolana substrate and grown at 18-20° C., are treated at the cotyledon Z11 stage by spraying with the aqueous suspension described above. Plants, used as controls, are treated with an aqueous solution not containing the active material.
After 24 hours, the plants are contaminated by depositing drops of an aqueous suspension of Botrytis cinerea spores (150,000 spores per ml) on upper surface of the leaves. The spores are collected from a 15-day-old culture and are suspended in a nutrient solution composed of: • 20 g/L of gelatin • 50 g/L of cane sugar • 2 g/L of NH4NO3 • 1 g/L of KH2PO4
The contaminated cucumber plants are settled for 5/7 days in a climatic room at 15-11° C. (day/night) and at 80% relative humidity.
Grading is carried out 5/7 days after the contamination, in comparison with the control plants. Under these conditions, good (at least 50%) to total protection is observed at a dose of 330 ppm with the following compounds :B-7, B-8, B-13, B-14, C-3, C-12, C-13, C-14, C-15, C-16, D-4, D-5, E-4, H-1, H-2, H-4, H-7, H-9, H-22, J-1, J-2, J-3, J-19, J-31, J-32, J-33, J-34, J-35, J-37, J-39, J-43, J-44, R-1, R-10, R-23, R-24, R-26, R-31, V-1, V-8.

A further assay has as its system Pyrenophora teres. Briefly: In vivo test on Pyrenophora teres (barley net blotch). Conditions: for pest or weed control at 330 ppm: Pyrenophora teres, 288 h, barley plants sprayed 24 hours before contamination, grading 12 days after contamination vs control plants, read-out: protection (good (at least 50%) to total); for efficacy against Pyrenophora teres: 330 ppm, comparison compounds of WO 01/11965. As to the method:
In Vivo Test on Pyrenophora teres (Barley Net Blotch)
as §1
Barley plants (Express variety) in starter cups, sown on a 50/50 peat soil-pozzolana substrate and grown at 12° C., are treated at the 1-leaf stage (10 cm tall) by spraying with the aqueous suspension described above. Plants, used as controls, are treated with an aqueous solution not containing the active material.
After 24 hours, the plants are contaminated by spraying them with an aqueous suspension of Pyrenophora teres spores (12,000 spores per ml). The spores are collected from a 12-day-old culture The contaminated barley plants are incubated for 24 hours at about 20° C. and at 100% relative humidity, and then for 12 days at 80% relative humidity.

For assay [1], the system named is Erysiphe graminis f. sp. tritici. Briefly: In vivo test on Erysiphe graminis f. sp. tritici (wheat powdery mildew). The following applies: Blumeria graminis, wheat plants sprayed 24 hours before contamination, grading 7 to 14 days after contamination vs control plants, read-out: protection (good (at least 50%) to total). As to the method: In Vivo Test on Erysiphe graminis f. sp. tritici (Wheat Powdery Mildew)
as §1
Wheat plants (Audace variety) in starter cups, sown on 50/50 peat soil-pozzolana substrate and grown at 12° C., are treated at the 1-leaf stage (10 cm tall) by spraying with the aqueous suspension described above.
(§2) Plants, used as controls, are treated with an aqueous solution not containing the active material.
After 24 hours, the plants are contaminated by dusting them with Erysiphe graminis f. sp. tritici spores, the dusting being carried out using diseased plants. Grading is carried out 7 to 14 days after the contamination, in comparison with the control plants.
Under these conditions, good (at least 50%) to total protection is observed at a dose of 330 ppm with the following compounds: A-4, B-4, B-8, C-2, C-3, C-12, D-4, F-1, H-1, H-2, H-4, H-20, I-3, J-1, J-2, J-3, J-19, J-20, J-31, J-37, J-40, J-55, J-57, J-58, J-59, J-61, K-1, M-5, M-6, R-1, R-10, R-26, R-29, V-7.

For a further assay, the system named is Alternaria brassicae. The assay is described as follows: In vivo test on Alternaria brassicae (leaf spot of crucifers). The following applies: for pest or weed control at 330 ppm: Alternaria brassicae, radish plants sprayed 24 hours before contamination, grading 6 to 7 days after contamination vs control plants, read-out: protection (good (at least 50%) to total); for efficacy against Alternaria brassicae: 330 ppm, comparison compounds of WO 01/11965. As to the method:
In Vivo Test on Alternaria brassicae (Leaf Spot of crucifers)
as §1
Radish plants (Pernot variety) in starter cups, sown on a 50/50 peat soil-pozzolana substrate and grown at 18-20° C., are treated at the cotyledon stage by spraying with the aqueous suspension described above.
as §2
After 24 hours, the plants are contaminated by spraying them with an aqueous suspension of Alternaria brassicae spores (40,000 spores per cm^3). The spores are collected from a 12-13-day-old culture.
The contaminated radish plants are incubated for 6-7 days at about 18° C., under a humid atmosphere.
Grading is carried out 6 to 7 days after the contamination, in comparison with the control plants.

The subject of a further assay is Peronospora brassicae. Briefly: In vivo test on Peronospora brassicae (cabbage downy mildew). Conditions: 330 ppm; comparison compounds of WO 01/11965. As to the method:
In Vivo Test on Peronospora brassicae (Cabbage Downy Mildew)
as §1
Cabbage plants (Eminence variety) in starter cups, sown on a 50/50 peat soil-pozzolana substrate and grown at 18-20° C., are treated at the cotyledon stage by spraying with the aqueous suspension described above.
as §2
After 24 hours, the plants are contaminated by spraying them with an aqueous suspension of Peronospora brassicae spores (50,000 spores per ml). The spores are collected from infected plant.
The contaminated cabbage plants are incubated for 5 days at 20° C., under a humid atmosphere.
Grading is carried out 5 days after the contamination, in comparison with the control plants.
Under these conditions, good (at least 50%) to total protection is observed at a dose of 330 ppm with the following compounds :B-6,B-7, J-46, J-59.

9 molecules from US7754741B2, “Pyridine derivatives as fungicidal compounds” (Bayer Cropscience S.A., priority 2003, dated 2010) can be followed below.

Structures are written as SMILES.

`Cn1cc(C(=O)NCCc2ncc(C(F)(F)F)cc2Cl)c(C(F)F)n1` [Compound J-3]: the pest or weed control at 330 ppm (in the assay on Botrytis cinerea; in the assay with Pyrenophora teres; in assay [1]; in the assay on Alternaria brassicae) was at least 50% each time.
As to `Cc1nn(C)cc1C(=O)NCCc1ncc(Cl)cc1Cl` [Compound J-19], the pest or weed control at 330 ppm (with Botrytis cinerea; in the assay on Pyrenophora teres; in assay [1]; with Alternaria brassicae) was at least 50% throughout.
On to `O=C(NCCc1ncc(C(F)(F)F)cc1Cl)c1cccnc1Cl` [Compound R-1], for which the pest or weed control at 330 ppm (in the assay on Botrytis cinerea; with Pyrenophora teres; in assay [1]; with Alternaria brassicae) was at least 50% throughout.
Take `Cc1ncccc1C(=O)NCCc1ncc(C(F)(F)F)cc1Cl` [Compound R-10]: the pest or weed control at 330 ppm (in the assay with Botrytis cinerea; in the assay on Pyrenophora teres; in assay [1]; in the assay on Alternaria brassicae) was at least 50% each time.
In the case of `O=C(NCCc1ncc(C(F)(F)F)cc1Cl)c1cccnc1Br` [Compound R-26], the pest or weed control at 330 ppm (in the assay on Botrytis cinerea; in the assay on Pyrenophora teres; in assay [1]; with Alternaria brassicae) was at least 50% throughout.
For `O=C(Cc1cccs1)NCc1ncc(C(F)(F)F)cc1Cl` [compound 101, N-{[3-chloro-5-(trifluoromethyl)-2-pyridinyl]-methyl}-5-thienylacetamide, reference compound], in the assay with Botrytis cinerea, the “efficacy against Botrytis cinerea” value is given as “no efficacy”. The “efficacy against Peronospora parasitica” value in the assay with Peronospora brassicae is “no efficacy”. For the same molecule, in the assay on Alternaria brassicae, the “efficacy against Alternaria brassicae” value is on record as “poor efficacy”.
As to `CCNC(=O)C(Cc1ncc(C(F)(F)F)cc1Cl)NC(=O)c1cccc([N+](=O)[O-])c1` (centres unmarked) [compound 307, N-{1-ethylcarbamoyl-2-[3-chloro-5-(trifluoromethyl)-2-pyridinyl]ethyl}-3-nitrobenzamide, reference compound], the “efficacy against Botrytis cinerea” value in the assay with Botrytis cinerea was “no efficacy”. Also, the “efficacy against Peronospora parasitica” value with Peronospora brassicae is recorded as “no efficacy”. Besides, in the assay on Pyrenophora teres, the “efficacy against Pyrenophora teres” value was “poor efficacy”. The “efficacy against Alternaria brassicae” value with Alternaria brassicae is listed as “poor efficacy”.
Consider `CCNC(=O)C(Cc1ncc(C(F)(F)F)cc1Cl)NC(=O)c1ccccc1Br` (centres unmarked) [compound 310, N-{1-ethylcarbamoyl-2-[3-chloro-5-(trifluoromethyl)-2-pyridinyl]ethyl}-2-bromobenzamide, reference compound], for which the “efficacy against Botrytis cinerea” value with Botrytis cinerea was “no efficacy”. Also, the “efficacy against Peronospora parasitica” value in the assay with Peronospora brassicae is “no efficacy”. Also, the “efficacy against Pyrenophora teres” value in the assay with Pyrenophora teres is on record as “poor efficacy”. Also, the “efficacy against Alternaria brassicae” value in the assay with Alternaria brassicae is “poor efficacy”.
Consider `CNC(=O)C(Cc1ncc(C(F)(F)F)cc1Cl)NC(=O)c1ccc(-c2ccccc2)cc1` (centres unmarked) [compound 316, N-{1-methylcarbamoyl-2-[3-chloro-5-(trifluoromethyl)-2-pyridinyl]ethyl}-4-phenylbenzamide, reference compound], for which the “efficacy against Botrytis cinerea” value in the assay with Botrytis cinerea is reported as “no efficacy”. The “efficacy against Peronospora parasitica” value in the assay with Peronospora brassicae was “no efficacy”. The “efficacy against Pyrenophora teres” value in the assay with Pyrenophora teres is “poor efficacy”. In addition, the “efficacy against Alternaria brassicae” value in the assay on Alternaria brassicae is “poor efficacy”.
